Assays:
Assay type in all cases: biochemical
Conditions in all cases: ADP-Glo SIK kinase assay
SIK1 = target: T1, SIK1 (Homo sapiens, UniProt P57059); test: ADP-Glo kinase assay, SIK1
T1 construct: purchased Carna Biosciences 02-131
Method in brief: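 ADP-Glo, RT throughout. Enz/substrate + ATP, 120 min; ADP-Glo reagent 40 min (ATP depletion); detection reagent 30 min; luminescence read. Neg ctrl 1% DMSO, pos ctrl 10 μM staurosporine, final concs.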

SIK2 = target: T2, SIK2 (Homo sapiens, UniProt Q9H0K1); test: ADP-Glo kinase assay, SIK2
T2 construct: purchased ThermoFisher Scientific PV4792
T2 sequence (Q9H0K1 whole entry): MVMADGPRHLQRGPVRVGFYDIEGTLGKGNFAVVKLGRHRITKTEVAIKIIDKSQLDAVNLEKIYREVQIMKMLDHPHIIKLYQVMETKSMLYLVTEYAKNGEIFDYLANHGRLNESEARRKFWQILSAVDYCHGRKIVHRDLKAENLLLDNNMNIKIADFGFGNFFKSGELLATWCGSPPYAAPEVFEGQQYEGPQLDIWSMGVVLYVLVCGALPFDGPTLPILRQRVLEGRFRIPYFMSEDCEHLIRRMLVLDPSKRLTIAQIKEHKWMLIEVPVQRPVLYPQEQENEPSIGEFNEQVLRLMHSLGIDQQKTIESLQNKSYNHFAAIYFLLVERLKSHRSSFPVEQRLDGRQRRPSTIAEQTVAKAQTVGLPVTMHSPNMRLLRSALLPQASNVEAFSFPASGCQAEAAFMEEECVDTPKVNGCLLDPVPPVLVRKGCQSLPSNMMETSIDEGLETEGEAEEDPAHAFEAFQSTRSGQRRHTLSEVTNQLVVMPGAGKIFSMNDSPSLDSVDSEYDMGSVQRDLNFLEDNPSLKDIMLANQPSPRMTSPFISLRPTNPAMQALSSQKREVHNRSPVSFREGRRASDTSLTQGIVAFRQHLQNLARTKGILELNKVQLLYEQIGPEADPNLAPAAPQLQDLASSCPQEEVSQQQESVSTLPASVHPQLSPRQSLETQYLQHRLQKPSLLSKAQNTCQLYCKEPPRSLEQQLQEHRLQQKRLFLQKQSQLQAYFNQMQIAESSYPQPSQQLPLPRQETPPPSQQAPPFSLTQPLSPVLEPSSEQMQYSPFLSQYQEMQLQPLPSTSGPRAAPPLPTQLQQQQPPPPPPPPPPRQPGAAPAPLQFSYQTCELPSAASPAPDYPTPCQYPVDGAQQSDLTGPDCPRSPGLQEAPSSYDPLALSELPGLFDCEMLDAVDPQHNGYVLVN
Method in brief: (§1)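 Kinase reactions (enzyme-substrate mix plus ATP) ran 120 min at room temperature for each of SIK3 and SIK2. Signal came from ADP-Glo: unconsumed ATP removed (40 min), ADP reconverted and detected by luciferase/luciferin (30 min), with luminescence tracking kinase activity. 10 μM staurosporine and 1% DMSO (final) served as controls.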

SIK3 = target: T3, SIK3 (Homo sapiens, UniProt Q9Y2K2); test: ADP-Glo kinase assay, SIK3
T3 construct: purchased SignalChem S12-11G-100
T3 sequence (Q9Y2K2 whole entry): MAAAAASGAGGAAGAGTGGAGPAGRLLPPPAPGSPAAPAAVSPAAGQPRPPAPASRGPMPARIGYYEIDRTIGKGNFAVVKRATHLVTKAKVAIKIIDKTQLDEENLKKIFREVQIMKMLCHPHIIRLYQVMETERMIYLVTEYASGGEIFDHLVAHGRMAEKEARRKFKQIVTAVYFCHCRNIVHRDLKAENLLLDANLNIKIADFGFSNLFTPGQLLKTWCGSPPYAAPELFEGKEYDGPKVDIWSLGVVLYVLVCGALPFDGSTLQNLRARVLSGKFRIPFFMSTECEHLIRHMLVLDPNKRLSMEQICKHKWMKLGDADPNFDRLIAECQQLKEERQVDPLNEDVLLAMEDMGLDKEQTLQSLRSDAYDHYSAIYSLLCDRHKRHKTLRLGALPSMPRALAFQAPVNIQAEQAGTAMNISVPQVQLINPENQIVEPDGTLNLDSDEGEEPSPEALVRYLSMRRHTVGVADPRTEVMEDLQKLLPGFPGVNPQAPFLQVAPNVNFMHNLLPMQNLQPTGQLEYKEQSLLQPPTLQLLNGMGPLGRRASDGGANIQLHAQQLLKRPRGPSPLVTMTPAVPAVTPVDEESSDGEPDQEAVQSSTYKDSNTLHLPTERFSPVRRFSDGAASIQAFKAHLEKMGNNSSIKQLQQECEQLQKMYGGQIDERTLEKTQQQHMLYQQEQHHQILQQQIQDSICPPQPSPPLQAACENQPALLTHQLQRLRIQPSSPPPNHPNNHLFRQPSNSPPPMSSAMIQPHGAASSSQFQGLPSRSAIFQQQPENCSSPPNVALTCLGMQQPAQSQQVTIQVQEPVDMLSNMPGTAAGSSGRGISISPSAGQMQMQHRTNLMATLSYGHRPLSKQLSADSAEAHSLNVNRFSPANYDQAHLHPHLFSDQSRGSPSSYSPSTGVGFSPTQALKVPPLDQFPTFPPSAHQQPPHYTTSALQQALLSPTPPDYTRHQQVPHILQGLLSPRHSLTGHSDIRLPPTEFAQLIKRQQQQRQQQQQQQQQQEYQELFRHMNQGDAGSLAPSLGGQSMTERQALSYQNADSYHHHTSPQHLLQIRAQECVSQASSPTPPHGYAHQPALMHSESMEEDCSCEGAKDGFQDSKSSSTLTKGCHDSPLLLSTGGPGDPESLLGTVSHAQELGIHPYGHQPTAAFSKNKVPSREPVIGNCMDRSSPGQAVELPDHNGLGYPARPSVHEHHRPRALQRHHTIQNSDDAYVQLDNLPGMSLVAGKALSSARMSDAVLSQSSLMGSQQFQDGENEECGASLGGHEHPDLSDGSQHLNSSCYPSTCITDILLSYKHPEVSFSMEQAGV
Method in brief: as §1

T1 sequence (P57059 whole entry): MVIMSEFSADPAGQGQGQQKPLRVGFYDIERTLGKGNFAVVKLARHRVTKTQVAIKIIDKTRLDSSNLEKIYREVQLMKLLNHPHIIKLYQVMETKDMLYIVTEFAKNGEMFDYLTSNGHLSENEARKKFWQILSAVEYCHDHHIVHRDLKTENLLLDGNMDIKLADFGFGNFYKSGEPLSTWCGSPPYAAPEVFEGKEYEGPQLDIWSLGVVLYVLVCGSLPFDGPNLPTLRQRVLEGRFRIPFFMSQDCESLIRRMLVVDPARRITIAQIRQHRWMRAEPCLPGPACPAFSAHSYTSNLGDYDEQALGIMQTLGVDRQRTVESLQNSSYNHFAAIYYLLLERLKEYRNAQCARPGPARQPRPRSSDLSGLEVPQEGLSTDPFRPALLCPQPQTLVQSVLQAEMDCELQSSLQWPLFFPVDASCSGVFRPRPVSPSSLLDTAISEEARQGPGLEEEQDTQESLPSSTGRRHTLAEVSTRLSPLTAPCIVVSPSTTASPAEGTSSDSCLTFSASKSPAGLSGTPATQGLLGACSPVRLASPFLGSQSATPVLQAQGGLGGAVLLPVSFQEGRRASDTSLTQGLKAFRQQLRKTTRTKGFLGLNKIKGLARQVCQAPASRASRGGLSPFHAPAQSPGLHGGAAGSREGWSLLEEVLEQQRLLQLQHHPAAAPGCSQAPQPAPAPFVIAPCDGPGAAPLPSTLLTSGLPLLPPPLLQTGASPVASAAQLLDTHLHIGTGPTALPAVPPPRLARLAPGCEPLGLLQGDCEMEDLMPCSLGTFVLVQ

| SMILES | IC50 (SIK1) | IC50 (SIK2) | IC50 (SIK3) |
| --- | --- | --- | --- |
| CNC1CC(Oc2ccn3c(-c4cc(OC)c(C(=O)NC5CC5)c(OC(F)F)c4)cnc3c2)C1 (stereo not drawn) [compound 161, N-cyclopropyl-2-(difluoromethoxy)-6-methoxy-4-[7-[3-(methylamino)cyclobutoxy]imidazo[1,2-a]pyridin-3-yl]benzamide] | 10 to 100 nM | 0.01 to 10 nM | 0.01 to 10 nM |
| COc1cc(-c2cnc3cc(OC4CCN(C)C4)ccn23)cc(OC(F)F)c1C(=O)NC1CC1 (stereo not drawn) [compound 15, N-cyclopropyl-2-(difluoromethoxy)-6-methoxy-4-[7-(1-methylpyrrolidin-3-yl)oxyimidazo[1,2-a]pyridin-3-yl]benzamide] | > 500 nM | 10 to 100 nM | 10 to 100 nM |
| COc1cc(-c2cnc3cc(OCc4cn(C)cn4)ccn23)cc(OC(F)F)c1C(=O)NC1CC1 [Cpd 101, N-cyclopropyl-2-(difluoromethoxy)-6-methoxy-4-[7-[(1-methylimidazol-4-yl)methoxy]imidazo[1,2-a]pyridin-3-yl]benzamide] | 10 to 100 nM | 0.01 to 10 nM | 0.01 to 10 nM |
| COc1cc(-c2cnc3cc(OC[C@H]4CCNC4)ccn23)cc(OC(F)F)c1C(=O)NC1CC1 [Cpd 314, N-cyclopropyl-2-(difluoromethoxy)-6-methoxy-4-[7-[[(3S)-pyrrolidin-3-yl]methoxy]imidazo[1,2-a]pyridin-3-yl]benzamide] | 10 to 100 nM | 0.01 to 10 nM | 0.01 to 10 nM |
| COc1cc(-c2cnc3cc(OC4CCC4)ccn23)cc(OC(F)F)c1C(=O)NC1CC1 [compound 151, 4-[7-(cyclobutoxy)imidazo[1,2-a]pyridin-3-yl]-N-cyclopropyl-2-(difluoromethoxy)-6-methoxy-benzamide] | 10 to 100 nM | 0.01 to 10 nM | 0.01 to 10 nM |
| COc1cc(-c2cnc3cc(OCC4CCN4)ccn23)cc(OC(F)F)c1C(=O)NC1CC1 (stereo not drawn) [Cpd 109, 4-[7-(azetidin-2-ylmethoxy)imidazo[1,2-a]pyridin-3-yl]-N-cyclopropyl-2-(difluoromethoxy)-6-methoxy-benzamide] | 10 to 100 nM | 0.01 to 10 nM | 0.01 to 10 nM |
| COc1cc(-c2cnc3cc(OCC4COCCN4)ccn23)cc(OC(F)F)c1C(=O)NC1CC1 (stereo not drawn) [Cpd 113, N-cyclopropyl-2-(difluoromethoxy)-6-methoxy-4-[7-(morpholin-3-ylmethoxy)imidazo[1,2-a]pyridin-3-yl]benzamide] | 10 to 100 nM | 0.01 to 10 nM | 0.01 to 10 nM |
| CCn1ccnc1COc1ccn2c(-c3cc(OC)c(C(=O)NC4CC4)c(OC(F)F)c3)cnc2c1 [Cpd 173, N-cyclopropyl-2-(difluoromethoxy)-4-[7-[(1-ethylimidazol-2-yl)methoxy]imidazo[1,2-a]pyridin-3-yl]-6-methoxy-benzamide] | 100 to 500 nM | 0.01 to 10 nM | 0.01 to 10 nM |
| COc1cc(-c2cnc3cc(OCCOCCN(C)C)ccn23)cc(OC(F)F)c1C(=O)NC1CC1 [compound 65, N-cyclopropyl-2-(difluoromethoxy)-4-[7-[2-[2-(dimethylamino)ethoxy]ethoxy]imidazo[1,2-a]pyridin-3-yl]-6-methoxy-benzamide] | 0.01 to 10 nM | 0.01 to 10 nM | 0.01 to 10 nM |
| COc1cc(-c2cnc3cc(OCc4cncn4C)ccn23)cc2c1C(=O)N(CC(F)(F)F)CC2 [compound 85, 8-methoxy-6-[7-[(3-methylimidazol-4-yl)methoxy]imidazo[1,2-a]pyridin-3-yl]-2-(2,2,2-trifluoroethyl)-3,4-dihydroisoquinolin-1-one] | > 500 nM | 0.01 to 10 nM | 0.01 to 10 nM |
| COc1cc(-c2cnc3cc(OCc4cscn4)ccn23)cc(OC(F)F)c1C(=O)NC1CC1 [compound 46, N-cyclopropyl-2-(difluoromethoxy)-6-methoxy-4-[7-(thiazol-4-ylmethoxy)imidazo[1,2-a]pyridin-3-yl]benzamide] | 10 to 100 nM | 0.01 to 10 nM | 0.01 to 10 nM |
| COc1cc(-c2cnc3cc(OCC4CCN4C(=O)OC(C)(C)C)ccn23)cc(OC(F)F)c1C(=O)NC1CC1 (stereo not drawn) [compound 87, tert-butyl 2-[[3-[4-(cyclopropylcarbamoyl)-3-(difluoromethoxy)-5-methoxy-phenyl]imidazo[1,2-a]pyridin-7-yl]oxymethyl]azetidine-1-carboxylate] | 10 to 100 nM | 0.01 to 10 nM | 0.01 to 10 nM |

More lines, now with the values ahead:

| IC50 (SIK1) | IC50 (SIK2) | IC50 (SIK3) | SMILES |
| --- | --- | --- | --- |
| 10 to 100 nM | 0.01 to 10 nM | 0.01 to 10 nM | COc1cc(-c2cnc3cc(OCC4(N)CCOC4)ccn23)cc(OC(F)F)c1C(=O)NC1CC1 (stereo not drawn) [compound 176, 4-[7-[(3-aminotetrahydrofuran-3-yl)methoxy]imidazo[1,2-a]pyridin-3-yl]-N-cyclopropyl-2-(difluoromethoxy)-6-methoxy-benzamide] |
| 0.01 to 10 nM | 0.01 to 10 nM | 0.01 to 10 nM | COc1cc(-c2cnc3cc(OCCN(C)c4ccncc4)ccn23)cc(OC(F)F)c1C(=O)NC1CC1 [compound 223, N-cyclopropyl-2-(difluoromethoxy)-6-methoxy-4-[7-[2-[methyl(4-pyridyl)amino]ethoxy]imidazo[1,2-a]pyridin-3-yl]benzamide] |
| 10 to 100 nM | 0.01 to 10 nM | 0.01 to 10 nM | COc1cc(-c2cnc3cc(OCCCN4CCc5c(ncn5C)C4)ccn23)cc(OC(F)F)c1C(=O)NC1CC1 [compound 309, N-cyclopropyl-2-(difluoromethoxy)-6-methoxy-4-[7-[3-(1-methyl-6,7-dihydro-4H-imidazo[4,5-c]pyridin-5-yl)propoxy]imidazo[1,2-a]pyridin-3-yl]benzamide] |
| 10 to 100 nM | 0.01 to 10 nM | 10 to 100 nM | CCN(CC)CCOCCOc1ccn2c(-c3cc(OC)c(C(=O)NC4CC4)c(OC(F)F)c3)cnc2c1 [compound 307, N-cyclopropyl-4-[7-[2-[2-(diethylamino)ethoxy]ethoxy]imidazo[1,2-a]pyridin-3-yl]-2-(difluoromethoxy)-6-methoxy-benzamide] |
| 100 to 500 nM | 100 to 500 nM | 0.01 to 10 nM | COc1cc(-c2cnc3cc(Oc4ccccc4)ccn23)cc(OC(F)F)c1C(=O)NC1CC1 [compound 157, N-cyclopropyl-2-(difluoromethoxy)-6-methoxy-4-(7-phenoxyimidazo[1,2-a]pyridin-3-yl)benzamide] |
| 0.01 to 10 nM | 0.01 to 10 nM | 0.01 to 10 nM | COc1cc(-c2cnc3cc(OCCc4cnn(C)c4)ccn23)cc(OC(F)F)c1C(=O)NC1CC1 [compound 204, N-cyclopropyl-2-(difluoromethoxy)-6-methoxy-4-[7-[2-(1-methylpyrazol-4-yl)ethoxy]imidazo[1,2-a]pyridin-3-yl]benzamide] |
| 0.01 to 10 nM | 0.01 to 10 nM | 0.01 to 10 nM | COc1cc(-c2cnc3cc(OCCN(C)c4ccncn4)ccn23)cc(OC(F)F)c1C(=O)NC1CC1 [compound 239, N-cyclopropyl-2-(difluoromethoxy)-6-methoxy-4-[7-[2-[methyl(pyrimidin-4-yl)amino]ethoxy]imidazo [1,2-a]pyridin-3-yl]benzamide] |
| 10 to 100 nM | 0.01 to 10 nM | 0.01 to 10 nM | COc1cc(-c2cnc3cc(OCC4(C)CC4)ccn23)cc(OC(F)F)c1C(=O)NC1CC1 [compound 97, N-cyclopropyl-2-(difluoromethoxy)-6-methoxy-4-[7-[(1-methylcyclopropyl)methoxy]imidazo[1,2-a]pyridin-3-yl]benzamide] |
| > 500 nM | 10 to 100 nM | 100 to 500 nM | CCOc1cc(-c2cnc3cc(OCCN(C)C)ccn23)cc2c1C(=O)N(CC(F)(F)F)CC2 [compound 140, 6-[7-[2-(dimethylamino)ethoxy]imidazo[1,2-a]pyridin-3-yl]-8-ethoxy-2-(2,2,2-trifluoroethyl)-3,4-dihydroisoquinolin-1-one] |
| 100 to 500 nM | 0.01 to 10 nM | 0.01 to 10 nM | COc1cc(-c2cnc3cc(OCC4CCCN4C(C)C)ccn23)cc(OC(F)F)c1C(=O)NC1CC1 (stereo not drawn) [compound 295, N-cyclopropyl-2-(difluoromethoxy)-4-[7-[(1-isopropylpyrrolidin-2-yl)methoxy]imidazo[1,2-a]pyridin-3-yl]-6-methoxy-benzamide] |
| 0.01 to 10 nM | 0.01 to 10 nM | 0.01 to 10 nM | COc1cc(-c2cnc3cc(OCc4nnc(C5CC5)o4)ccn23)cc(OC(F)F)c1C(=O)NC1CC1 [compound 205, N-cyclopropyl-4-[7-[(5-cyclopropyl-1,3,4-oxadiazol-2-yl)methoxy]imidazo[1,2-a]pyridin-3-yl]-2-(difluoromethoxy)-6-methoxy-benzamide] |
| 10 to 100 nM | 0.01 to 10 nM | 0.01 to 10 nM | COc1cc(-c2cnc3cc(OCc4noc(C)n4)ccn23)cc(OC(F)F)c1C(=O)NC1CC1 [compound 231, N-cyclopropyl-2-(difluoromethoxy)-6-methoxy-4-[7-[(5-methyl-1,2,4-oxadiazol-3-yl)methoxy]imidazo[1,2-a]pyridin-3-yl]benzamide] |
| 10 to 100 nM | 0.01 to 10 nM | 0.01 to 10 nM | COc1cc(-c2cnc3cc(OCc4nc(C)no4)ccn23)cc(OC(F)F)c1C(=O)NC1CC1 [compound 229, N-cyclopropyl-2-(difluoromethoxy)-6-methoxy-4-[7-[(3-methyl-1,2,4-oxadiazol-5-yl)methoxy]imidazo[1,2-a]pyridin-3-yl]benzamide] |
| 10 to 100 nM | 10 to 100 nM | 0.01 to 10 nM | COc1cc(-c2cnc3cc(OCC4CCCCN4CC(F)F)ccn23)cc(OC(F)F)c1C(=O)NC1CC1 (stereo not drawn) [compound 149, N-cyclopropyl-4-[7-[[1-(2,2-difluoroethyl)-2-piperidyl]methoxy]imidazo [1,2-a]pyridin-3-yl]-2-(difluoromethoxy)-6-methoxy-benzamide] |

Reference: patent US12264156B2, “Compounds and pharmaceutical compositions thereof for the treatment of diseases” (GALAPAGOS NV, priority 2018, dated 2025)
